Patent publication US20140127157A1, “ANTIVIRAL ACTIVITY OF TYROSINE KINASE INHIBITORS AGAINST HEPATITUS C VIRUS” (priority 2012, published 2014)
Read-outs that look alike come from different tables or passages of the source.

Columns and labels:
HCVcc [1] = experiment: microbe, parasite or virus in culture; conditions: for EC50: Hepatitis C virus
Source text: (§1) The infectious cell culture system for HCV (HCVcc) is based on a unique full length strain of genotype 2a derived from a patient with fulminant hepatitis (JFH-1). HCVcc allows the complete virus life cycle to be studied in cell culture. A chimeric strain of JFH-1, termed Jc1JFH, is capable of more robust growth in tissue culture and can be engineered to encode a reporter gene. The activity of compounds such as nilotinib against HCVcc can be investigated using a Jc1JFH reporter virus encoding luciferase (Table 1). Naïve Huh-7.5 cells are treated with serially diluted compounds in DMSO for 2 h prior to infection with HCVcc. […] Both EC50 and CC50 values are normalized to cells treated with DMSO alone.

in vitro = conditions: human
Source text: as §1

HCVrep = experiment: HCV replicon (HCVrep) luciferase assay, JFH-1-based replicon cell line; parameters: species or system Hepatitis C virus (HCV)
Source text: (§2) HCVrep comprises a stable cell line harboring a sub-genomic replicon encoding a selectable marker (e.g., neomycin phosphotransferase), a reporter gene (e.g., luciferase) and the minimal HCV replicase proteins, NS3 to NS5B. Since the subgenomic replicon is non-infectious, the HCVrep system is used to study viral RNA replication independently of other stages of the life cycle, including virus entry/assembly/release. […] To determine the effects of compounds such as nilotinib on HCV RNA replication, a stable JFH-1-based replicon cell line encoding luciferase was established.

[2] = Cytotoxicity in HCVrep cell line
Source text: as §1, §2

HCVcc [3] = experiment: Time of addition experiment with HCVcc (FIG. 1); assay type: cell-based, Hepatitis C virus (HCV); conditions: treatment 1 (compound during first 4 h of infection) vs treatment 2 (added 4 h post-infection); luciferase at 72 h
Experimental: FIG. 1. The effect of agents added before or after entry of HCV into cells. The presence of compound during both binding and post-binding are indicated by black bars; white bars indicate compounds present only at post-binding. DMSO, dimethyl sulfoxide; 5Ainh, HCV NS5A inhibitor (50×EC50); nilotinib (50×EC50); α-CD81, anti-CD81 antibody (1 μg/mL); α-IgG, iso-type control antibody (1 μg/mL).
To further explore the MOA of compounds such as nilotinib, a time of addition experiment is performed to determine whether the compound acted at an early (i.e., entry) or late (i.e., assembly/release) stage of the virus life cycle. Naive Huh7.5 cells are infected for 4 h with HCVcc in either the presence (treatment 1) or absence (treatment 2) of compound. At 4 h post-infection, compound is then added to the treatment 2 cells. At 72 h post infection, luciferase activity is determined. An inhibitor of viral entry (antibody targeting CD81) and an HCV replication inhibitor (5Ainh) are used as comparators.

HCV entry = assay type: cell-based, Hepatitis C virus (HCV); conditions: binding 1.5 h at 4° C., shift to 37° C., compound added at 20 min intervals up to 2 h; luciferase after 48 h
Experimental: The effect of agents added during entry of HCV into cells-. HCV kinetic entry assay in the presence of compounds.
In this assay, infection is synchronized by incubation of cells and virus together for 1.5 h at 4° C. to allow binding, but not subsequent entry steps. After synchronization, unbound virus is removed by washing, and cells are shifted to 37° C. to initiate post-binding events. Compounds are added either immediately prior to (time zero), or at 20 min intervals post-temperature shift for up to 2 h. Compounds are removed at 4 h post-addition and luciferase activity is measured after 48 h of infection. Controls are included, which are known to block various steps of the HCV entry process: heparin sulfate (virus binding), anti-CD81 antibody (early post-virus binding), concanamycin A (ConA; late post-virus binding), bafilomycin (Baf; late post-virus binding), gefitinib (Gef; late post-virus binding). Percent inhibition is determined relative to treatment with compounds during synchronized virus binding at 4° C. Representative data of percent inhibition versus time of addition (FIG. 2) is used to estimate half-maximal times (t1/2) to inhibit HCV entry.

[4] = Table 2, ratio of cytotoxicity to antiviral potency

Row | Molecule | EC50 (HCVcc [1]; Huh7.5) [µM] | CC50 (in vitro) [µM] | other results
1 | Cc1nc(Nc2ncc(C(=O)Nc3c(C)cccc3Cl)s2)cc(N2CCN(CCO)CC2)n1 [Dasatinib, dasatinib] | 1.48 | 18.7 | CC50/EC50 (HCVcc [1]): 12.65
2 | C#Cc1cccc(Nc2ncnc3cc(OCCOC)c(OCCOC)cc23)c1 [Erlotinib, erlotinib] | 0.47 | > 25 | 
3 | COc1cc2ncnc(Nc3ccc(F)c(Cl)c3)c2cc1OCCCN1CCOCC1 [Gefitinib, gefitinib] |  | 10.6 | 
4 | Cc1ccc(NC(=O)c2ccc(CN3CCN(C)CC3)cc2)cc1Nc1nccc(-c2cccnc2)n1 [Imatinib, imatinib] |  |  | activity against the replicon (HCVrep; at the concentrations tested): did not show activity at the concentrations tested
5 | Cc1ccc(NC(=O)c2ccc(CN3CCN(C)CC3)cc2)cc1Nc1nc(-c2cccnc2)cs1 [Masitinib, masitinib] | 0.77 | 6.27 | CC50/EC50 (HCVcc [1]; [4]): 14.58
6 | Cc1cn(-c2cc(NC(=O)c3ccc(C)c(Nc4nccc(-c5cccnc5)n4)c3)cc(C(F)(F)F)c2)cn1 [Nilotinib, nilotinib] | 0.04 | 8.77 | CC50/EC50 (HCVcc [1]): 219.25; EC50 (HCVcc [1]; Huh7.5, read-out: HCVcc (EC50, μM)): 0.04 µM; CC50 (in vitro; HCVcc (CC50, μM), uninfected compound-treated cells, CellTiter Glo): 8.8 µM; EC50 (HCVrep; Hepatitis C virus, JFH-1-based replicon cell line, 72 h treatment): 4.2 µM; CC50 at 72 h [2]: 8.2 µM; potency when added during versus after HCV entry (HCVcc [3]): significantly more potent when added during the first 4 h of infection
7 | Cc1ccc(C(=O)Nc2ccc(CN3CCN(C)CC3)c(C(F)(F)F)c2)cc1C#Cc1cnc2cccnn12 [Ponatinib, ponatinib] | 0.05 |  | 
8 | CNC(=O)c1cc(Oc2ccc(NC(=O)Nc3ccc(Cl)c(C(F)(F)F)c3)c(F)c2)ccn1 [Regorafenib, regorafenib] | 0.33 | > 2.5 | 
9 | Cc1cn(-c2cc(NC(=O)c3ccc(C)c(Nc4nccc(-c5cnccn5)n4)c3)cc(C(F)(F)F)c2)cn1 [Rodotinib, radotinib] | 0.04 | > 2.5 | 
10 | CNC(=O)c1cc(Oc2ccc(NC(=O)Nc3ccc(Cl)c(C(F)(F)F)c3)cc2)ccn1 [Sorafenib, sorafenib] | 0.47 | 5.75 | CC50/EC50 (HCVcc [1]; [4]): 12.23
11 | CCN(CC)CCNC(=O)c1c(C)[nH]c(/C=C2\C(=O)Nc3ccc(F)cc32)c1C [Sunitinib, sunitinib] | 0.94 | 3.54 | CC50/EC50 (HCVcc [1]; [4]): 3.77
12 | heparin sulfate |  |  | inhibition kinetics of HCV entry versus time of addition (t1/2) (HCV entry): effectively blocks infection only when present during virus binding
